Measurements taken from patent US9700546B2, “Trivalent chromium compounds, compositions and methods of use” (INTERHEALTH NUTRACEUTICALS, INC., priority 2006, dated 2017).
Read-outs that look alike come from different tables or passages of the source.

Columns and labels:
yeast = details: Cooper et al. 1984; cited from earlier work
Obese Zucker rats [1] = assay: In vivo assessment in obese Zucker rats: clinical chemistry (AP, BUN, CRT, AST, ALT); details: obese Zucker rats; mean ± SE
Obese Zucker rats [2] = assay: In vivo assessment in obese Zucker rats: other vascular inflammation markers (cAMP, TNFα, IL-6, OxyDNA); details: obese Zucker rats, daily 400 μg Cr(III)/kg, 8 weeks, mean ± SE; for OxyDNA: oxidative DNA damage
[3] = cited from earlier work; for chromium absorbed (average): men and women
Obese Zucker rats [4] = assay: In vivo assessment in obese Zucker rats: blood lipid profile (total cholesterol, triglycerides, HDL); details: daily 400 μg Cr(III)/kg, 8 weeks, mean
Obese Zucker rats [5] = assay: In vivo assessment in obese Zucker rats: key biological parameters (fasting glucose, HbA1c, vitamin C, GSH, RBC lipid peroxidation); details: obese Zucker rats, daily 400 μg Cr(III)/kg, 8 weeks, mean; for RBC Lipid Peroxidase: malondialdehyde by thiobarbituric acid; for Fasting Glucose: fasted overnight; for Vitamin C: plasma
Obese Zucker rats [6] = assay: In vivo assessment in obese Zucker rats: vascular inflammation markers (MCP-1, CRP, RBP-4, leptin, ICAM, adiponectin); details: obese Zucker rats, daily 400 μg Cr(III)/kg, 8 weeks, mean; for Adiponectin / CRP / MCP-1 / ICAM: plasma, ELISA
insulin = details: in vitro; cited from earlier work
Obese Zucker rats [7] = assay: In vivo assessment in obese Zucker rats: body weight and food intake; details: obese Zucker rats, daily 400 μg Cr(III)/kg, mean; for Food Intake 5 wks: at 5 weeks; for Food Intake 7 wks: at 7 weeks
[8] = typical; cited from earlier work
Obese Zucker rats [9] = details: rat, in vivo

| Compound | glucose tolerance factor activity in yeast assay (yeast) | IL-6 (Obese Zucker rats [2]) [pg/mL] | cAMP (Obese Zucker rats [2]) [pmol/mL] | OxyDNA (Obese Zucker rats [2]) [ng/mL] | chromium absorbed (average) [3] [µg] | HDL (Obese Zucker rats [4]) [mg/dL] | Total Cholesterol (Obese Zucker rats [4]) [mg/dL] | Triglyceride (Obese Zucker rats [4]) [mg/dL] | RBC Lipid Peroxidase (Obese Zucker rats [5]) [nmol/mL] | Fasting Glucose (Obese Zucker rats [5]) [mg/dL] | GSH (Obese Zucker rats [5]) [µmol/g] | HbA1c (Obese Zucker rats [5]) [%] | Leptin (Obese Zucker rats [6]) [pg/mL] | RBP-4 (Obese Zucker rats [6]) [ng/mL] | Adiponectin (Obese Zucker rats [6]) [ng/mL] | CRP (Obese Zucker rats [6]) [ng/mL] | MCP-1 (Obese Zucker rats [6]) [pg/mL] | also measured |
| --- | --- | --- | --- | --- | --- | --- | --- | --- | --- | --- | --- | --- | --- | --- | --- | --- | --- | --- |
| NC(C[S-])C(=O)[O-].NC(C[S-])C(=O)[O-].[Cr+3] (stereo not shown) [Cr(cysteine)2^−] | not active |  |  |  |  |  |  |  |  |  |  |  |  |  |  |  |  |  |
| Chromium Histidinate [CrHis, reference compound] |  | 91.98 ± 8.19 | 28.07 ± 2.83 | 57.72 ± 2.86 | 3.1 | 66.90 | 189.62 | 503.93 | 1.91 | 592.01 | 4.68 | 15.89 | 436.96 | 51112.60 | 11455.87 | 710.26 | 2974.79 | ALT (Alanine Aminotransferease) (Obese Zucker rats [1]): 168.25 u/L; AP (Alkaline phosphatase) (Obese Zucker rats [1]): 35.25 u/L; AST (Aspartate Aminotransferase) (Obese Zucker rats [1]): 248.00 u/L; Anion Gap (Obese Zucker rats [1]): 29.75; BUN (Blood Urea Nitrogen) (Obese Zucker rats [1]): 19.50 mg/dL; BUN/CRT Ratio (Obese Zucker rats [1]): 48.75; CRT (Creatinine) (Obese Zucker rats [1]): 0.40 mg/dL; Total Bilirubin (Obese Zucker rats [1]): 0.10 mg/dL; TNFα (Obese Zucker rats [2]): 24.72 ± 5.24 pg/mL; absorbed better than chromium picolinate ([3]; relative to chromium picolinate): at least 50%; Total Chol/HDL (Obese Zucker rats [4]): 2.86 ratio |
| O=C(O)c1cccnc1 [Niacin, reference compound] |  | 93.76 ± 1.60 | 34.27 ± 1.47 | 47.31 ± 2.78 |  | 70.33 | 192.17 | 486.67 | 1.82 | 543.00 | 5.32 | 15.60 | 363.96 | 53945.00 | 8872.00 | 548.27 | 1365.66 | ALT (Alanine Aminotransferease) (Obese Zucker rats [1]): 126.17 u/L; BUN (Blood Urea Nitrogen) (Obese Zucker rats [1]): 19.33 mg/dL; CRT (Creatinine) (Obese Zucker rats [1]): 0.40 mg/dL; potentiation of the action of insulin (insulin): virtually no effect; Food Intake 5 wks (Obese Zucker rats [7]): 37.92 g/day; Food Intake 7 wks (Obese Zucker rats [7]): 39.67 g/day; Vitamin C (Obese Zucker rats [5]): 0.15 mg %; ICAM (Obese Zucker rats [6]): 16855.83 pg/mL |
| [Cl][Cr]([Cl])[Cl] [chromium chloride] |  |  |  |  | 0.4 |  |  |  |  |  |  |  |  |  |  |  |  | absorbed by the body [8]: less than one |
| NC(=O)CCC(N)C(=O)[O-].NC(=O)CCC(N)C(=O)[O-].O.O.[Cr+3] (stereo not shown) [Cr(glutamine)2(H2O)2^+] | significant activity |  |  |  |  |  |  |  |  |  |  |  |  |  |  |  |  |  |
| Chromium Picolinate [CrP, reference compound] |  | 94.13 ± 2.47 | 29.17 ± 2.00 | 49.02 ± 2.31 | 1.8 | 66.01 | 191.80 | 625.35 | 2.05 | 527.28 | 4.84 | 15.54 | 399.55 | 49236.91 | 11229.84 | 654.78 | 4549.99 | TNFα (Obese Zucker rats [2]): 33.66 ± 5.27 pg/mL; Total Chol/HDL (Obese Zucker rats [4]): 3.02 ratio; Food Intake 5 wks (Obese Zucker rats [7]): 35.85 g/day; Food Intake 7 wks (Obese Zucker rats [7]): 40.79 g/day; Vitamin C (Obese Zucker rats [5]): 0.15 mg %; ICAM (Obese Zucker rats [6]): 20428.47 pg/mL; ALT (Alanine Aminotransferease) (Obese Zucker rats [9]): 179.78 u/L; AP (Alkaline phosphatase) (Obese Zucker rats [9]): 40.06 u/L; AST (Aspartate Aminotransferase) (Obese Zucker rats [9]): 362.44 u/L; Anion Gap (Obese Zucker rats [9]): 29.61; BUN (Blood Urea Nitrogen) (Obese Zucker rats [9]): 20.22 mg/dL; BUN/CRT Ratio (Obese Zucker rats [9]): 49.72; CRT (Creatinine) (Obese Zucker rats [9]): 0.41 mg/dL; Total Bilirubin (Obese Zucker rats [9]): 0.07 mg/dL |
| Cr-nicotinic acid-glycine | significant activity |  |  |  |  |  |  |  |  |  |  |  |  |  |  |  |  |  |
